Measured values: PMC9227250, “Design, Synthesis and Cytotoxic Activity Evaluation of Newly Synthesized Amides-Based TMP Moiety as Potential Anticancer Agents over HepG2 Cells” (Molecules, 2022)

Key:
[1] = target: T1, β-tubulin (Homo sapiens, UniProt P07437+P68363); assay: Tubulin polymerization inhibition assay (Human Beta-tubulin ELISA kit); format: biochemical
T1 construct: […]
Protocol: See Section 4.3.3 in Supplementary Data.
4.3.3. Tubulin inhibitions Assay […]
manufacturer’s instructions using # abcam Human Beta-tubulin simplestep ELISA Kit […]
Cell cycle analysis in HepG2 cells was investigated using fluorescent Annexin V - FITC/ PI detection kit (BioVision EZCellTM Cell Cycle Analysis Kit Catalog #K920) […]
After treatment, cells were washed twice in PBS, fixed in 70% ethanol, rinsed again with PBS. Cells were collected by centrifugation at 2000 rpm for 5 min and stained with DNA […]
The samples were immediately analyzed using Facs Calibur flow cytometer (Becton and Dickinson, Heidelberg, Germany).
Apoptosis in HepG2 cells was investigated using fluorescent Annexin V-FITC/ PI detection kit (BioVision Annexin V-FITC Apoptosis Detection Kit, Catalog #: K101) […]
(§1) immediately analyzed using FACS Calibur flow cytometer (Becton and Dickinson, […]
Caspase 3/7 in HepG2 cells was investigated using CellEvent® Caspase 3/7 Green Detection Flow Cytometry Assay Kit. Caspase 3/7 activity in HepG2 cell line was […]
CellEvent® caspase 3/7 green detection flow cytometry assay kit according to manufacturer’s directions. […]
harvested and washed with ice cold PBS, and cell lysates were prepared and […]

[2] = tested on: HL-7702 cells; assay: MTT cytotoxicity assay against normal liver cell line HL-7702; format: cell-based, human
Protocol: (§2) Cytotoxic activity was carried out using MTT colorimetric antiproliferative assay to investigate the effect of the prepared molecules on HepG2 as well as HL-7702 cell lines. See Section 4.3.1 in Supplementary Data.
(§3) 4.3.1. Cytotoxic activity evaluation
(§4) To measure the cytotoxic actvity of the amide derivatives 2-6e in hepatocellular carcinoma (HepG2) cell line (ATCC Cat No. HB-8065) as well as normal human liver cell line HL-7702 (ATCC Cat. No. 77402), cell viability assay was assessed using MTT assay method. Cells at density of 1 x 104 were seeded in a 96-well plate at 37 °C for 24 h under 5% CO2. After incubation, the cells were treated with different concentrations of the test schiff bases 2-6e and incubated for 24 h, then 20 µl of MTT solution at 5 mg/mL was applied and incubated for 4 h at 37 °C . Dimethyl sulphoxide (DMSO) in volume of 100 µl was added to each well to dissolve the purple formazan that had formed. The color intensity of the formazan product, which represents the growth condition of the cells, is quantified by using an ELISA plate reader (EXL 800, USA) at 450 nm absorbance. The experimental conditions were carried out with at least three replicates, and the experiments were repeated at least three times. […]

[3] = tested on: HepG2 cells; assay: Cell cycle analysis by flow cytometry (PI); format: cell-based, human; settings: HepG2, IC50 dose, 48 h; untreated control 7.28%
Text: Inhibition of tubulin assembly into microtubule and the antiproliferative effects are characterized by cell cycle arrest in the G2/M phase. […] The results in this study indicate that the newly prepared tetraamide derivative 6a cause cell cycle perturbation in the G2/M phase which is the main gauge of HDAC and tubulin inhibitors confirming the mode of action under study.
Cell cycle analysis in HepG2 cells was investigated using fluorescent Annexin V-FITC/ PI detection kit (BioVision EZCell^TM Cell Cycle Analysis Kit Catalog #K920) by flow cytometry assay. See Section 4.3.4 in Supplementary Data. […]
(§5) concentration that induces 50% of maximum inhibition of HDAC isoforms (IC50) […]
(§6) 4.3.3. Tubulin inhibitions Assay
(§7) Compound 6a was evaluated for its tubulin inhibitory activity according to manufacturer’s instructions using # abcam Human Beta-tubulin simplestep ELISA Kit […]
(§8) 4.3.4. Cell cycle analysis of compound 6a
Cell cycle analysis in HepG2 cells was investigated using fluorescent Annexin V - FITC/ PI detection kit (BioVision EZCellTM Cell Cycle Analysis Kit Catalog #K920) by flow cytometry assay. HepG2 cells at a density of 2 × 10^5 per well were treated with compound 6a at its IC50 concentration for 48 h. […] The samples were immediately analyzed using Facs Calibur flow cytometer (Becton and Dickinson, Heidelberg, Germany). […]

[4] = tested on: HepG2 cells; assay: MTT cytotoxicity assay against HepG2 cell line; format: cell-based; settings: Homo sapiens, mean of three independent replicates ± SE
Protocol: as §2, §3, §4

[5] = tested on: HepG2 cells; assay: Annexin V-FITC/PI apoptosis assay; format: cell-based, human; settings: HepG2, IC50 concentration, 48 h
Protocol: G2/M blockade is often followed by cellular apoptosis. To quantify the percentage of cellular apoptosis induced by compound 6a in HepG2 cells, Annexin V fluorescein isothiocyanate versus propidium iodide (PI) dual staining analysis was performed after treatment with compound 6a at its IC50 concentration for 48 h. The results were presented graphically in Figure 5. […] Therefore, it can be concluded that compound 6a can be considered as apoptotic inducer.
Apoptosis in HepG2 cells was investigated using fluorescent Annexin V-FITC/ PI detection kit (BioVision Annexin V-FITC Apoptosis Detection Kit, Catalog #: K101) by flow cytometry assay. See Section 4.3.5 in Supplementary Data. […]
as §5, §6, §7, §8
Cell cycle analysis in HepG2 cells was investigated using fluorescent Annexin V - FITC/ PI detection kit (BioVision EZCellTM Cell Cycle Analysis Kit Catalog #K920) by flow cytometry assay. HepG2 cells at a density of 2 × 10^5 per well were treated with compound 6a at its IC50 concentration for 48 h. After treatment, cells were washed twice in PBS, fixed in 70% ethanol, rinsed again with PBS. Cells were collected by centrifugation at 2000 rpm for 5 min and stained with DNA fluorochrome PI for 15 min at 37 °C in dark. The samples were immediately analyzed using Facs Calibur flow cytometer (Becton and Dickinson, Heidelberg, Germany).
4.3.5. Apoptosis assay for compound 6a […]
Caspase 3/7 in HepG2 cells was investigated using CellEvent® Caspase 3/7 Green Detection Flow Cytometry Assay Kit. Caspase 3/7 activity in HepG2 cell line was detected in the presence of compounds 6a at its IC50 concentration (µM) using CellEvent® caspase 3/7 green detection flow cytometry assay kit according to manufacturer’s directions. […]

[6] = target: T2, HDAC1 (Homo sapiens, UniProt Q13547); assay: In vitro HDAC1 inhibition assay (ELISA kit); format: biochemical; settings: HepG2 cells exposed 72 h
T2 construct: Briefly, HepG2 cells were trypsinized, counted and seeded; host or cells: HepG2
Protocol: (§9) See Section 4.3.2 in Supplementary Data.
(§10) 4.3.1. Cytotoxic activity evaluation […]
(§11) for 24 h under 5% CO2. After incubation, the cells were treated with different concentrations of the test schiff bases 2-6e and incubated for 24 h, then 20 µl of MTT […]
(§12) (DMSO) in volume of 100 µl was added to each well to dissolve the purple formazan that had formed. The color intensity of the formazan product, which represents the […]
(§13) USA) at 450 nm absorbance. The experimental conditions were carried out with at least three replicates, and the experiments were repeated at least three times.
(§14) 4.3.2. In vitro HDAC inhibition assay
(§15) HDAC isoforms (HDAC1, 2) were measured using ELISA assay kits {Mybiosource, Inc. [#MBS2020012 and #MBS2510971]} according to manufacturer's directions.
(§16) 96-well micro titer plates. Cells then were incubated in a humidified atmosphere at 37 °C for 24 h. The standards, the tested compounds, and the positive reference SAHA were diluted to designated concentrations. On the 96-well micro titer plates standard or sample was added to each well in 100 µL, and incubated at 37 °C for 2 h. The solution was aspirated and 100 µL of prepared. Detection Reagent A was added to […]
4.3.3. […]
(§17) The samples were immediately analyzed using Facs Calibur flow cytometer (Becton and Dickinson, Heidelberg, Germany). […]
as §1

[7] = target: T3, HDAC2 (Homo sapiens, UniProt Q92769); assay: In vitro HDAC2 inhibition assay (ELISA kit); format: biochemical; settings: HepG2 cells exposed 72 h
T3 construct: Briefly, HepG2 cells were trypsinized, counted and seeded; host or cells: HepG2
Protocol: as §9, §10, §11, §12, §13, §14, §15, §16
4.3.3. […]
as §17, §1

T1 sequence (P07437 whole entry): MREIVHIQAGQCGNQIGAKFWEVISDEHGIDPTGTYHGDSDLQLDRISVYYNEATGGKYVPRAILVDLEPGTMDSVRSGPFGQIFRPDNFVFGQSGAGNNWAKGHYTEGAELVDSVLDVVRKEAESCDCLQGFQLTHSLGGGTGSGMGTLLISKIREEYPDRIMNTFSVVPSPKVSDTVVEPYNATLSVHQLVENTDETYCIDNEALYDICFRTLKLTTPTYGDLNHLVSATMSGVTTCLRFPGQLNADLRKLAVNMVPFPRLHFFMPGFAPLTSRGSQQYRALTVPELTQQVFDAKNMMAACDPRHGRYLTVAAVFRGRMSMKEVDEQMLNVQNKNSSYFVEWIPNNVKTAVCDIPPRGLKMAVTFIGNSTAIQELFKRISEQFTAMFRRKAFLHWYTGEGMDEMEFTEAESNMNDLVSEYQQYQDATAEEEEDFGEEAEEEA
T1 sequence (P68363 whole entry): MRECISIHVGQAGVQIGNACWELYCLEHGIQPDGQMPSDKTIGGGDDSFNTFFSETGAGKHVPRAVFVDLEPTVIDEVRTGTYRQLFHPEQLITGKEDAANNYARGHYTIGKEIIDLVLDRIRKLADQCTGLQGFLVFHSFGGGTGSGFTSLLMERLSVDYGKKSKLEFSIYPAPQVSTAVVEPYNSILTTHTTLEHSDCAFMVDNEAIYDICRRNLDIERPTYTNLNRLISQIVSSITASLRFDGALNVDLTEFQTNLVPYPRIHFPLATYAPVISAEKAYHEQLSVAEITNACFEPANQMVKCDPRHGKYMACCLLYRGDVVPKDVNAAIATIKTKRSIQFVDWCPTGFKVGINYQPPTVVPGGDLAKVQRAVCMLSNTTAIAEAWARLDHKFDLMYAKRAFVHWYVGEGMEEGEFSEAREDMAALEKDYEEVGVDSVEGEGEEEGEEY
T2 sequence (Q13547 whole entry): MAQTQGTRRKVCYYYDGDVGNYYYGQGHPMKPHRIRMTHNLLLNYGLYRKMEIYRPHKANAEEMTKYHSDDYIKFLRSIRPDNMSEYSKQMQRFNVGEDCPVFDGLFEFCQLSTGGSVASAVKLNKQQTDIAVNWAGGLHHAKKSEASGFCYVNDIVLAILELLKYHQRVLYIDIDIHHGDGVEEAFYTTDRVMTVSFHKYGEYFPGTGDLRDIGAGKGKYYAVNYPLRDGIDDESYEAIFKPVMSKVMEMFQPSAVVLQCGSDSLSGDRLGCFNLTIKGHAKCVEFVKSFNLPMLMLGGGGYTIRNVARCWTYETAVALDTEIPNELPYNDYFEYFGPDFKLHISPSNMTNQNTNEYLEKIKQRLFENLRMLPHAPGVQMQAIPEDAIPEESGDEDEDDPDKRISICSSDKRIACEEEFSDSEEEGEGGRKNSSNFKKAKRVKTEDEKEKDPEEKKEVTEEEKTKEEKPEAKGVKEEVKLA
T3 sequence (Q92769 whole entry): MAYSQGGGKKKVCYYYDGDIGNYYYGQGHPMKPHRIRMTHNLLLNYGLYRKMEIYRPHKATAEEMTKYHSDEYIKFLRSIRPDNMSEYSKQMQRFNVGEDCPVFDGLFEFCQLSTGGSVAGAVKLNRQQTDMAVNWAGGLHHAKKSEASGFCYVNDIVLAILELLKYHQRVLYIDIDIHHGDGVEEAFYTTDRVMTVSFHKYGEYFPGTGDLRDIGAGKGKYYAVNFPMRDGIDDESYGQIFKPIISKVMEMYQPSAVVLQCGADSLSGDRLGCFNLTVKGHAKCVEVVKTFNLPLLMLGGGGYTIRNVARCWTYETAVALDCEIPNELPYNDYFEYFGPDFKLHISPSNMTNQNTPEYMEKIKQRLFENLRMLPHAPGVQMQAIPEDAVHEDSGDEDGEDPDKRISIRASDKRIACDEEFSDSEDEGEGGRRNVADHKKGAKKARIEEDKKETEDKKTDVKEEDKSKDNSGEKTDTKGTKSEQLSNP

tubulin polymerization percentage inhibition ([1]; ELISA for β-tubulin, compared with untreated control cells): 66.39%
IC50 ([1]; β-tubulin ELISA): 270 nM
IC50 [6]: 47 nM
melting point: 209 to 211 °C
IC50 [7]: 86 nM
SMILES: COc1cc(C(=O)NC(=Cc2ccc(Cl)cc2)C(=O)NNC(=O)/C(=C/c2ccco2)NC(=O)c2cc(OC)c(OC)c(OC)c2)cc(OC)c1OC [Compound 6a, N-((1Z)-3-(2-(3-(4-chlorophenyl)-2-(3,4,5-trimethoxybenzamido)acryloyl)hydrazinyl)-1-(furan-2-yl)-3-oxoprop-1-en-2-yl)-3,4,5-trimethoxybenzamide]
selectivity ratio toward normal liver cell line ([2]; HL-7702 (printed HL-7022) versus HepG2): 14.8
IC50 ([2]; Homo sapiens, L02, MTT assay, normal liver cell line HL-7702, mean of three independent replicates ± SE): 9620 ± 230 nM
cells in G2/M phase [3]: 39.09%
IC50 [4]: 650 ± 30 nM
late apoptotic cell percentage ([5]; untreated control 0.13%): 12.08%
early apoptotic cell percentage ([5]; untreated control 0.52%): 23.41%
total apoptosis percentage ([5]; untreated control 1.59%): 37.51%
